What was measured:
[1] = Water uptake: weight change as a function of relative humidity (sorption apparatus); format: physicochemical
Procedure: The stable glass was prepared by vapor depositing IMC onto an aluminum substrate using the method described in Example 1, above. The substrate was held at a temperature of 265 K and a deposition rate of 2 Å/s was used. For comparison, two “ordinary” glass samples were also prepared. These were formed by vapor-deposition at 315 K. In addition, water uptake was measured for a crystalline IMC glass. Weight change as a function of relative humidity was measured for the ordinary glasses, stable glass, and crystalline IMC. The multiple curves for a given sample are from cycles where the relative humidity (RH) was stepped up and back down. A TA instruments Q5000SA sorption apparatus was used to induce relative humidity step changes and measure the steady-state weight change response. For the crystalline IMC (lowest curve), at 50% RH less than 0.1% weight change was observed. By contrast: the ordinary glass (uppermost curves) absorbed nearly one weight percent at a RH of 50%. The measured percent weight change observed here matches previous data obtained for ordinary IMC glasses and crystalline IMC by Zografi and coworkers. (See Andronis et al., J. Pharm. Sci. 86, 346 (1997).)

[2] = Differential scanning calorimetry of glass stability (onset temperature, fictive temperature, θK); format: physicochemical; settings: for Tg (onset temperature) of ordinary glass: ordinary glass cooled from the liquid; for enthalpies and Tfic values of vapor-deposited samples relative to ordinary glass: samples prepared by vapor deposition
Source text: Differential scanning calorimetry (DSC) was used to examine the kinetics and thermodynamics of vapor-deposited samples created by heating crystalline TNB or IMC in a vacuum. To move a sample from the glass to the supercooled liquid, energy must be supplied to the sample. In DSC, this energy is supplied as heat to the system as the temperature is ramped from a temperature below the glass transition into the supercooled liquid regime. For an ordinary glass that is cooled from the melt the amount of energy needed to do this is observed by a change in heat capacity at Tg. […] An endothermic heat characteristic will be observed in these cases, often referred to as an enthalpy overshoot, where the size and temperature of the overshoot indicate the amount of stability.
This scan was continued to above the melting point, after which the sample was cooled at 40 K/min into the glass and then scanned again to yield the leftmost curve. This latter-curve represents the behavior of an ordinary glass of TNB, with Tg=347 K, as defined by the onset temperature; it is consistent with previously reported results for TNB (C. M. Whitaker, R. J. McMahon J. Phys. Chem. 100, 1081 (1996); J. H. Magill, J. Chem. Phys. 47, 2802 (1967)). The DSC instrument was calibrated using an indium standard.
The fictive-temperature (Tfic) of the glasses, as defined below, was calculated in order to quantify the thermodynamic stability of the vapor-deposited materials. Lower Tfic values indicate a lower position on the energy landscape. The enthalpy for TNB and IMC samples, obtained by integrating Cp, is plotted in FIG. 1B. […] The supercooled liquid enthalpy curve was calculated by determining the temperature dependence of the enthalpy between the glass transition and the melting point and extrapolating this dependence to lower temperatures. […] Based upon aging experiments on TNB (D. J. Plazek, J. H. Magill, J. Chem. Phys. 45, 3038 (1966)), it is estimated that it would require at least 40 years of annealing an ordinary glass to match Tfic for the vapor-deposited sample shown in FIG. 1.
The Kauzmann temperature and θK were also calculated. For TNB, Magill estimated TK=270 K (J. H. Magill, J. Chem. Phys. 47, 2802 (1967)). […] In comparison, annealing the ordinary glass at 296 K (θK=0.09) or 328 K (θK=0.22) is relatively ineffective. […] Of annealing achieved θK≦0.17 (A. J. Kovacs, Fortschr Hochpolym-Forsch. 3, 394 (1963)).

[3] = Quasi-isothermal temperature modulated DSC: transformation of glass to supercooled liquid; format: physicochemical; settings: ordinary glass; Tanneal 319 K
Procedure: The stable glass was prepared by vapor depositing IMC onto an aluminum substrate using the method described in Example 1, above. The substrate was held at a temperature of 265 K and a deposition rate of 2 Å/s was used. For comparison, an “ordinary” glass sample was also prepared by melting the vapor-deposited IMC glass and cooling the resulting liquid at a rate of 40 K/min.
The kinetic stability of the stable IMC glass was explored in quasi-isothermal temperature modulated differential scanning calorimetry (qi-TMDSC) experiments. In these experiments a TA instruments Q2000 DSC was used. After vapor deposition, the samples were placed in the DSC at room temperature. A temperature jump from room temperature to the annealing-temperature was carried out. At room temperature the sample was a glass, and the annealing temperature was chosen such that it was higher than the ordinary glass Tg (315 K). The temperature jump defines t=0. In addition to the instantaneous temperature jump a small sinusoidal temperature fluctuation was imposed (amplitude: 0.5: K, period: 60 seconds) which allows; one to measure the reversing heat capacity as a function of time.

[4] = Neutron reflectivity of interdiffusion in h-TNB/d-TNB multilayer films during annealing; format: physicochemical
Procedure: Neutron reflectivity was used to characterize diffusion in ordinary and stable glasses of TNB. The high spatial resolution and large contrast in the scattering length of neutrons for hydrogen and deuterium nuclei make this an excellent technique for quantifying molecular motion. The neutron reflectivity experiments were conducted at the NIST Center for Neutron Research at the National Institute of Standards and Technology (NCNR-NIST). The NG7 horizontal reflectometer utilized a 4.76 Å collimated neutron beam, with a wavelength divergence of 0.18 Å. The angular divergence of the beam was varied through the reflectivity scan and this provided a relative q resolution Δq/q=0.04 (q=4π sin θ/λ, where θ is the incident and final angle with respect to the surface of the film, and where λ is the neutron wavelength).
For the neutron reflectivity measurements, multilayer thin films of protio TNB (h-TNB) and deuterio TNB (d-TNB) were deposited onto 76-mm-diameter, 3-mm-thick silicon-wafers (Wafer World and Virginia Semiconductor), as described in S. F. Swallen, et al., J. Chem. Phys. 124, 184501 (2006). The silicon was used as received, retaining the native oxide coating. The deposition rate was typically 0.1 nm/s. Prior to deposition, the substrate was spin-coated with a 10-nm polystyrene layer (Polymer Source, ˜10^6 g/mol), which acted to minimize crystallization and dewetting of the TNB film during annealing. The polystyrene was made from a mixture of protio and perdeuterio chains, in order, to approximately match the neutron scattering length density of the first h-TNB layer. Following deposition, the samples were slowly cooled and held at room temperature for 1 to 5 days before neutron reflectivity measurements were obtained. The specular reflectivity R was measured as a function of beam angle relative to the sample surface. This value, multiplied by q^4 for clarity, is plotted as a function of the wavevector q. Reflectivity curves for samples vapor-deposited at different temperatures display diffraction peaks; as expected for the symmetric multi-layer samples, only odd diffraction orders are, present. For samples deposited at low temperature, diffraction can be observed up to the 13th order, indicating very sharp h-TNB/d-TNB interfaces. (S. F. Swallen et al; Science 315, 353 (2.007)). […]
FIG. 4A illustrates the behavior of an ordinary glass annealed near Tg; as shown elsewhere (S. F. Swallen et al., J. Chem. Phys. 124, 184501 (2006)), interdiffusion in this sample is characteristic of the equilibrium liquid. […] The magnitude of this stability can be quantified in terms of the equilibrium structural relaxation time τα, known to be 250 s at 342 K (R. Richert, K. Duvvuri, L.-T. Duong, J. Chem. Phys. 118, 1828 (2003)). […]

[5] = estimated by Magill; cited from earlier work
[6] = at 342 K; cited from earlier work
[7] = Density of vapor-deposited films by x-ray reflectivity; format: physicochemical; settings: deposition at 296 K
Source text: The present vapor-deposition methods can also create unusually dense glasses. The ratio of the density of vapor-deposited TNB (ρVD) to that of the ordinary glass (ρo, prepared by cooling from the liquid), increases as the deposition temperature is lowered toward 0.85 Tg (FIG. 2). Also shown as the solid line is a prediction of the density if vapor-deposition produced an equilibrium supercooled liquid at the deposition temperature (D. J. Plazek, J. H. Magill, J. Chem. Phys. 45, 3038 (1966)). For this range of deposition temperatures, the samples nearly achieve this upper bound for density. If a fictive temperature is defined based upon density, deposition at 296 K produces Tfic≈300 K, slightly lower than the fictive temperature based upon the enthalpy. Fictive temperatures based on densities can be determined from FIG. 2, by horizontally shifting the points to overlap with the line shown.
The data in FIG. 2 were determined from x-ray reflectivity measurements made on as-prepared films of TNB and on the same films after thermal equilibration above Tg. All x-ray data was taken at room temperature. […] Since the area of the film was the same before and after annealing, the ratio of the densities equals the inverse of the ratio of the thicknesses, and this is reported in FIG. 2. […]

[8] = DSC of glasses made in a sublimation apparatus; settings: vapor deposition by sublimation, 8 mTorr
Source text: A glass container that could be evacuated was used as a sublimation chamber. The lower part of the container held the material to be sublimed (“source material”). A condenser cooled by a circulating coolant was positioned above the source material. At the bottom of the condenser were attached a silicon wafer or aluminum DSC pans, which serves as surfaces for vapor deposition. The source material was heated to sublime by submerging the bottom the sublimation apparatus in an oil bath. The vapor produced by sublimation was deposited on the cooled collecting surfaces. The vacuum maintained during the operation of this device was 8 mTorr. A metal plate was placed over the source material until vapor deposition was to begin, at which time it was withdrawn magnetically. The sublimation rate was controlled by varying the oil bath temperature.
Curve 1 corresponds to a glass prepared by vapor deposition onto a DSC pan held, at approximately Tg−50 K at a rate of ˜0.2 nm/s. Curve 2 corresponds to an ordinary glass, produced by cooling the liquid at a rate of 10 K/min. […] Curve 1 corresponds to a glass prepared by vapor deposition onto a DSC pan at approximately Tg−50 K at a rate of ˜0.4 nm is. […] Curve 2 corresponds to an ordinary glass produced by cooling the liquid at 10 K/min.

Row | Structure (SMILES) | weight change (water uptake) ([1]; crystalline, 50% RH) | weight change (water uptake) ([1]; ordinary glass (vapor-deposited at 315 K), RH of 50%) | water uptake of stable glass relative to ordinary glass ([1]; relative humidity of 50%) | weight change (water uptake) ([1]; stable glass (vapor-deposited at 265 K, 2 Å/s), relative humidity of 50%) [weight percent] | Tg (onset temperature) of ordinary glass [2] [K] | enthalpies and Tfic values of vapor-deposited samples relative to ordinary glass [2] | response to temperature jump (transformation to supercooled liquid) [3] | interdiffusion of h-TNB/d-TNB during annealing ([4]; deposited at 296 K, 16 hours of annealing at 342 K) | interdiffusion of h-TNB/d-TNB during annealing ([4]; deposited at 330 K, 8 hours of annealing at 342 K) | induction time before diffusion ([4]; sample deposited at 0.85Tg, annealed at 342 K) | surface diffusion coefficient ([4]; vapor-deposited at 296 K, 0.1 nm/sec, order-of-magnitude estimate) | Kauzmann temperature TK [5] [K] | equilibrium structural relaxation time τα [6] [s] | annealing time of an ordinary glass required to match Tfic of the vapor-deposited sample ([2]; estimated from aging experiments) | onset temperature ([2]; glass vapor-deposited onto substrate at 296 K, DSC heating 10 K/min) [K] | θK ([2]; ordinary glass annealed at 296 K) | θK ([2]; ordinary glass annealed at 328 K) | θK ([2]; vapor deposition at 296 K (0.85Tg)) | Tfic (fictive temperature based upon density) [7] | stability of glass made in sublimation apparatus [8]
1 | COc1ccc2c(c1)c(CC(=O)O)c(C)n2C(=O)c1ccc(Cl)cc1 [IMC, indomethacin] | less than 0.1% | one | one sixth | 0.15 | 315 | considerably lower | nearly instantaneous | – | – | – | – | – | – | – | – | – | – | – | – | –
2 | c1ccc2cc(-c3cc(-c4cccc5ccccc45)cc(-c4cccc5ccccc45)c3)ccc2c1 [TNB, 1,3-bis-(1-naphthyl)-5-(2-naphthyl)benzene] | – | – | – | – | 347 | considerably lower | – | no detectable interdiffusion occurred | substantial interfacial broadening had occurred | exceeds 200 τα | 5×10^−16 cm^2/sec | 270 | 250 | at least 40 years | 363 | 0.09 | 0.22 | 0.43 | ≈ 300 K | –
3 | CCC1(c2ccccc2)C(=O)NC(=O)NC1=O [phenobarbital] | – | – | – | – | – | – | – | – | – | – | – | – | – | – | – | – | – | – | – | low fictive temperatures
